ChEMBL document CHEMBL5137057, “Small Carbohydrate Derivatives as Potent Antibiofilm Agents” (J Med Chem, 2022)
≈ marks a conversion by molar mass, not a printed value.

Columns and labels:
[1] = target: Type 1 fimbrin D-mannose specific adhesin (Escherichia coli K-12) (UniProt P08191); experiment: Inhibition of Escherichia coli UTI89 FimH by hemagglutination assay
[2] = target: T1, Fucose-binding lectin PA-IIL (Pseudomonas aeruginosa (strain ATCC 15692 / DSM 22644 / CIP 104116 / JCM14847 / LMG 12228 / 1C / PRS 101 / PAO1), UniProt Q9HYN5); experiment: Binding affinity to Pseudomonas aeruginosa PAO1 LecB assessed as dissociation constant by isothermal titration calorimetry
Target sequence in this assay (Q9HYN5 whole entry): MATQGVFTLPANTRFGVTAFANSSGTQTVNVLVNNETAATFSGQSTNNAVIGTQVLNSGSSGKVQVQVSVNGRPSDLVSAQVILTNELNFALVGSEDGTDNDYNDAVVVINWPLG

[3] = target: T1, Fucose-binding lectin PA-IIL; experiment: Inhibition of Pseudomonas aeruginosa PA14 LecB incubated for 22 to 24 hrs by fluorescence polarization based competitive binding analysis
Target sequence in this assay (Q9HYN5 1-115): as the sequence (Q9HYN5 whole entry) above

[4] = target: T1, Fucose-binding lectin PA-IIL; experiment: Binding affinity to Pseudomonas aeruginosa PA14 LecB assessed as dissociation constant by isothermal titration calorimetry
Target sequence in this assay (Q9HYN5 1-115): as the sequence (Q9HYN5 whole entry) above

[5] = test system: Mycolicibacterium smegmatis; experiment: Antimicrobial activity against Mycobacterium smegmatis MC2 155 assessed as planktonic growth inhibition measured after 48 hrs by microplate reader analysis; format: functional
[6] = test system: Mycolicibacterium smegmatis; experiment: Antibiofilm activity against Mycobacterium smegmatis MC2 155 assessed as […] measured after 48 hrs by crystal violet staining based analysis; format: functional
[7] = target: T2, PA-I galactophilic lectin (Pseudomonas aeruginosa (strain ATCC 15692 / PAO1 / 1C / PRS 101 / LMG12228), UniProt Q05097); experiment: Inhibition of Pseudomonas aeruginosa LecA incubated for 4 to 6 hrs by fluorescence polarization based competitive binding analysis
T2 sequence (Q05097 whole entry): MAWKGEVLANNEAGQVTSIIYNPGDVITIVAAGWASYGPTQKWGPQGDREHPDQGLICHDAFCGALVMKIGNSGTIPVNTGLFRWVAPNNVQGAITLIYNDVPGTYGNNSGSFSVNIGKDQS

Streptococcus agalactiae [8] = experiment: Antibiofilm activity against Streptococcus agalactiae GRS90; format: functional; conditions: dose 128 µg/ml; time 22 hrs
Streptococcus agalactiae [9] = experiment: Antibiofilm activity against Streptococcus agalactiae GB2; format: functional
Staphylococcus aureus [10] = experiment: Potentiation of vancomycin-induced antibacterial activity against methicillin resistant Staphylococcus aureus Mu50 in presence of vancomycin; format: functional, organism-based
[11] = target: Type 1 fimbrin D-mannose specific adhesin (Escherichia coli K-12) (UniProt P08191); experiment: Relative inhibitory potency, ratio of methyl alpha-D-mannose Kd to compound Kd for binding affinity to Escherichia coli FimH by ELISA assay; conditions: K12
Staphylococcus aureus [12] = experiment: Antibiofilm activity against methicillin-sensitive Staphylococcus aureus UAMS-1 measured after 22 hrs by crystal violet staining based assay; format: functional; conditions: for MIC50: Staphylococcus aureus, UAMS-1
[13] = target: Type 1 fimbrin D-mannose specific adhesin (Escherichia coli K-12) (UniProt P08191); experiment: Relative inhibitory potency, ratio of methyl alpha-D-mannose Kd to compound Kd for binding affinity to C-terminal His-tagged truncated Escherichia coli FimH by SPR analysis; conditions: K12
Pseudomonas aeruginosa [14] = experiment: Antibiofilm activity against Pseudomonas aeruginosa PA14 measured after 48 hrs by confocal laser scanning microscope analysis relative to control; format: functional
Staphylococcus aureus [15] = experiment: Potentiation of vancomycin-induced antibacterial activity against methicillin resistant Staphylococcus aureus Mu50 pretreated with compound followed by vancomycin addition; format: functional, organism-based
Staphylococcus aureus [16] = experiment: Antibacterial activity against Staphylococcus aureus ATCC 25923 assessed as inhibition of biofilm formation incubated for 24 hrs by crystal violet staining based analysis relative to control; format: functional; design: scale not given: the % may be the effect or the level left
Serratia marcescens = experiment: Antibacterial activity against Serratia marcescens ATCC 27117 assessed as inhibition of biofilm formation at 50 ug/ml incubated for 24 hrs by crystal violet staining based analysis relative to control; format: functional; design: scale not given: the % may be the effect or the level left; conditions: dose 50 µg/ml
[17] = target: T2, PA-I galactophilic lectin; experiment: Binding affinity to Pseudomonas aeruginosa LecA assessed as dissociation constant by isothermal titration calorimetry
Escherichia coli = experiment: Antibiofilm activity against Escherichia coli UTI89; format: functional, organism-based
Pseudomonas aeruginosa [18] = experiment: Antibacterial activity against Pseudomonas aeruginosa PAO1 NCTC 10332 assessed as inhibition of biofilm formation incubated for 24 hrs by crystal violet staining based analysis; format: functional, organism-based; conditions: PAO1 NCTC 10332, 24 h

Sequence of Type 1 fimbrin D-mannose specific adhesin (Escherichia coli K-12) (P08191 whole entry, the tested form may be a part): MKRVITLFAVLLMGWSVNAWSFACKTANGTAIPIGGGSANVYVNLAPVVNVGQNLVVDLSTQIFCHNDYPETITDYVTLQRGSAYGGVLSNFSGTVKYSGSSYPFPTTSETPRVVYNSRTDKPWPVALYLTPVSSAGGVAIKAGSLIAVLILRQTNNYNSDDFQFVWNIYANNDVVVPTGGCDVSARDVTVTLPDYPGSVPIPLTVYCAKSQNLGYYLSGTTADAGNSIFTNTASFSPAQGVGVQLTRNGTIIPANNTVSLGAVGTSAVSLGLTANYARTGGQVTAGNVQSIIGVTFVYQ

CNC(=O)c1cc(C(=O)NC)cc(-c2ccc(O[C@H]3O[C@H](CO)[C@@H](O)[C@H](O)[C@@H]3O)c(C(F)(F)F)c2)c1
EC>90 [1]: 8 nM

Cc1cc(-c2ccc3ccn(C(=O)Nc4cccnc4)c(=O)c3c2)ccc1O[C@H]1O[C@H](CO)[C@@H](O)[C@H](O)[C@@H]1O
EC>90 [1]: 62 nM

CNC(=O)c1cc(C(=O)NC)cc(-c2ccc(O[C@H]3O[C@H](CO)[C@@H](O)[C@H](O)[C@@H]3O)cc2)c1
EC>90 [1]: 375 nM

C[C@@H]1O[C@H](CNC(=O)/C=C/c2ccccc2)[C@@H](O)[C@H](O)[C@@H]1O
Kd [2]: 3.09 µM | IC50 [3]: 2.5 µM | Kd [4]: 2.59 µM

[N-]=[N+]=N[C@H]1[C@@H](O[C@H]2O[C@H](CO)[C@@H](O)[C@H](O)[C@H]2O)O[C@H](CO)[C@@H](O)[C@@H]1O
MIC [5]: > 500 µM | MBIC [6]: 500 µM

OC[C@H]1O[C@@H](Oc2ccccc2)[C@H](O)[C@@H](O)[C@H]1O
IC50 [7]: 13.2 µM

O=c1oc2c(O[C@@H]3OC[C@H](O)[C@H](O)[C@H]3O)c(O)cc3c(=O)oc4c(O)c(O)cc1c4c23
MBIC50 (Streptococcus agalactiae [8]): 512 µg/mL | MBIC50 (Streptococcus agalactiae [9]): 512 µg/mL

O=c1[nH]ccc2ccc(-c3ccc(O[C@H]4O[C@H](CO)[C@@H](O)[C@H](O)[C@@H]4O)cc3)cc12
EC>90 [1]: 100 nM

CNC(=O)c1cccc(-c2ccc(O[C@H]3O[C@H](CO)[C@@H](O)[C@H](O)[C@@H]3O)cc2)c1
EC>90 [1]: 500 nM

O=C(NC[C@@H]1O[C@H](CNC(=O)c2ccccc2Cl)[C@@H](O)[C@H]1O)c1ccccc1
EC50 (Staphylococcus aureus [10]): 3.71 µM

OC[C@H]1O[C@H](O[C@H]2S[C@H](CO)[C@@H](O)[C@H](O)[C@H]2O)[C@H](O)[C@@H](O)[C@@H]1O
MIC [5]: > 500 µM | MBIC [6]: 100 µM

CCOc1c(Nc2ccc(O[C@H]3O[C@H](CO)[C@@H](O)[C@H](O)[C@@H]3O)c(Cl)c2)c(=O)c1=O
Ratio [11]: 6900

O=C(NC[C@]1(O)CO[C@H](CNC(=O)c2ccccc2Cl)[C@H]1O)c1ccccc1
EC50 (Staphylococcus aureus [10]): 7.98 µM

O=c1oc2c(O[C@@H]3OC[C@@H](O)[C@H](O)[C@H]3O)c(O)cc3c(=O)oc4c(O)c(O)cc1c4c23
MBIC50 (Staphylococcus aureus [12]): 64 µg/mL | MBIC90 (Staphylococcus aureus [12]): >512 µg/mL | MIC50 (Staphylococcus aureus [12]): 32 µg/mL (≈ 73.7 µM) | MBIC50 (Streptococcus agalactiae [8]): 512 µg/mL | MBIC50 (Streptococcus agalactiae [9]): 512 µg/mL

OC[C@H]1O[C@H](O[C@H]2O[C@H](CO)[C@@H](O)[C@H](O)[C@H]2O)[C@@H](O)[C@@H](O)[C@@H]1O
MIC [5]: > 500 µM | MBIC [6]: >500 µM

CCOc1c(Nc2ccc(O[C@H]3O[C@H](CO)[C@@H](O)[C@H](O)[C@@H]3O)cc2)c(=O)c1=O
Ratio [11]: 1800

CO[C@H]1O[C@H](CO)[C@@H](O)[C@H](O)[C@@H]1O
Ratio [13]: 1

Cc1cc(C)c(S(=O)(=O)NC[C@H]2O[C@@H](C)[C@@H](O)[C@@H](O)[C@@H]2O)c(C)c1
Kd [2]: 1.27 µM | IC50 [3]: 0.34 µM | Kd [4]: 0.31 µM | Activity (Pseudomonas aeruginosa [14]): 80%

O=C(NC[C@]1(O)CO[C@H](CN2C(=O)c3ccccc3C2=O)[C@H]1O)c1ccccc1Cl
EC50 (Staphylococcus aureus [15]): 0.26 µM | EC50 (Staphylococcus aureus [10]): 1.27 µM

O=C(NC[C@]1(O)CO[C@H](CN2C(=O)c3ccccc3C2=O)[C@H]1O)c1ccccc1
EC50 (Staphylococcus aureus [15]): 5.01 µM | EC50 (Staphylococcus aureus [10]): 8.29 µM

C[C@@H]1O[C@H](CNS(=O)(=O)c2cccs2)[C@@H](O)[C@H](O)[C@@H]1O
Activity (Pseudomonas aeruginosa [14]): 80%

CNC(=O)c1cccc(-c2ccc(O[C@H]3O[C@H](CO)[C@@H](O)[C@H](O)[C@@H]3O)c(C)c2)c1
EC>90 [1]: 62 nM

CCCCCCC[C@H](CC(=O)NCc1ccccc1)OC(=O)C[C@@H](CCCCCCC)O[C@@H]1O[C@@H](C)[C@H](O)[C@@H](O)[C@H]1O[C@@H]1O[C@@H](C)[C@H](O)[C@@H](O)[C@H]1O
Activity (Staphylococcus aureus [16]): >90% | Activity (Serratia marcescens): >80%

C[C@@H]1O[C@@H](Oc2c(O)cc3c(=O)oc4c(O)c(O)cc5c(=O)oc2c3c45)[C@H](O)[C@H](O)[C@H]1O
MBIC50 (Staphylococcus aureus [12]): 64 µg/mL | MBIC90 (Staphylococcus aureus [12]): 128 µg/mL | MIC50 (Staphylococcus aureus [12]): > 512 µg/mL

O[C@H]1[C@@H](O)[C@H](C2CO2)O[C@@H](Oc2ccccc2)[C@@H]1O (single isomer, unassigned)
IC50 [7]: > 3000 µM

OC[C@H]1O[C@H](O[C@@H]2C[C@@H](O)[C@H](O)[C@@H](CO)O2)[C@H](O)[C@@H](O)[C@@H]1O
MIC [5]: > 500 µM | MBIC [6]: 50 µM

OC[C@H]1O[C@@H](Sc2ccc3ccccc3c2)[C@H](O)[C@@H](O)[C@H]1O
EC50 (Staphylococcus aureus [10]): 7.97 µM

C[C@H]1O[C@H](O[C@H]2O[C@H](CO)[C@@H](O)[C@H](O)[C@H]2O)[C@H](O)[C@@H](O)[C@@H]1O
MIC [5]: > 500 µM | MBIC [6]: 100 µM

COc1ccc(/C=N/NC(=O)c2ccc(O[C@@H]3O[C@H](CO)[C@H](O)[C@H](O)[C@H]3O)cc2)cc1
Kd [17]: 5.6 µM | IC50 [7]: 55.5 µM

Cc1cc(-c2ccc3cc[nH]c(=O)c3c2)ccc1O[C@H]1O[C@H](CO)[C@@H](O)[C@H](O)[C@@H]1O
EC>90 [1]: 31 nM | IC50 (Escherichia coli): 0.13 µM

CNC(=O)c1cccc(-c2ccc(O[C@H]3O[C@H](CO)[C@@H](O)[C@H](O)[C@@H]3O)c(C(F)(F)F)c2)c1
EC>90 [1]: 32 nM

[N-]=[N+]=NC[C@H]1O[C@H](O[C@H]2O[C@H](CO)[C@@H](O)[C@H](O)[C@H]2O)[C@H](O)[C@@H](O)[C@@H]1O
MIC [5]: > 500 µM | MBIC [6]: 50 µM

OC[C@H]1O[C@H](O[C@H]2O[C@H](CO)[C@@H](O)[C@H](O)[C@H]2F)[C@H](O)[C@@H](O)[C@@H]1O
MIC [5]: > 500 µM | MBIC [6]: 100 µM

O=c1oc2c(O)c(O)cc3c(=O)oc4c(O)c(O)cc1c4c23 [ELLAGIC ACID]
MBIC50 (Staphylococcus aureus [12]): 128 µg/mL | MBIC90 (Staphylococcus aureus [12]): >512 µg/mL | MIC50 (Staphylococcus aureus [12]): > 512 µg/mL

O=C(O)/C=C(\C[C@@H]1O[C@H](CO)[C@H](O)[C@H](O)[C@H]1O)c1ccccc1
Kd [17]: 37 µM

CCCCCCC[C@H](CC(=O)N1CCCCC1)OC(=O)C[C@@H](CCCCCCC)O[C@@H]1O[C@@H](C)[C@H](O)[C@@H](O)[C@H]1O[C@@H]1O[C@@H](C)[C@H](O)[C@@H](O)[C@H]1O
Activity (Staphylococcus aureus [16]): >90% | Activity (Serratia marcescens): >80%

OC[C@H]1O[C@H](O[C@H]2O[C@H](CF)[C@@H](O)[C@H](O)[C@H]2O)[C@H](O)[C@@H](O)[C@@H]1O
MIC [5]: > 500 µM | MBIC [6]: 100 µM

CCCCCCC[C@H](CC(=O)O)OC(=O)C[C@@H](CCCCCCC)O[C@@H]1O[C@@H](C)[C@H](O)[C@@H](O)[C@H]1O[C@@H]1O[C@@H](C)[C@H](O)[C@@H](O)[C@H]1O
IC50 (Pseudomonas aeruginosa [18]): 75 µg/mL (≈ 115 µM)

OC[C@H]1O[C@@H](OCc2cn([C@H]3[C@H](O)[C@@H](O)[C@H](n4cc(-c5ccc(-c6cn([C@@H]7O[C@H](CO)[C@@H](n8cc(CO[C@@H]9O[C@H](CO)[C@H](O)[C@H](O)[C@H]9O)nn8)[C@H](O)[C@H]7O)nn6)cc5)nn4)O[C@@H]3CO)nn2)[C@H](O)[C@@H](O)[C@H]1O
Kd [17]: 0.012 µM

Cc1cc(=O)oc2ccc(O[C@H]3O[C@H](CO)[C@@H](O)[C@H](O)[C@@H]3O)cc12
Ratio [13]: 380

O[C@H]1[C@@H](O)[C@@H](C2CO2)O[C@@H](Oc2ccccc2)[C@@H]1O (some centres not stated)
IC50 [7]: 64 µM

O=C(N/N=C/c1ccc(Oc2ccc(/C=N/NC(=O)c3ccc(O[C@@H]4O[C@H](CO)[C@H](O)[C@H](O)[C@H]4O)cc3)cc2)cc1)c1ccc(O[C@@H]2O[C@H](CO)[C@H](O)[C@H](O)[C@H]2O)cc1
Kd [17]: 10.8 µM | IC50 [7]: 5 µM

CNC(=O)c1cc(C(=O)NC)cc(-c2ccc(O[C@H]3O[C@H](CO)[C@@H](O)[C@H](O)[C@@H]3O)c(C)c2)c1
EC>90 [1]: 16 nM
